In patent US20140109520A1, “BEVERAGE FILLING METHOD AND APPARATUS” (DAI NIPPON PRINTING CO., LTD., priority 2008, published 2014):
Read-outs that look alike come from different tables or passages of the source.

Experiments:
[1] = tested on: B. subtilis var. niger ATCC9372
Text: Evaluation method to the measurement was as follows.
Sterilization Effects (Log Reduction)=Log(Number of Adhering Bacteria/Number of Survived Bacteria)
Index Bacteria: B. subtilis var. niger ATCC9372

B. subtilis spore = tested on: B. subtilis spore
Text: Effects attained by the container sterilization method of the present invention will be compared with effects attained by the conventional sterilization method as in the following Table 2.
(§1) In the column “No” in the above Table 2, A1, A2, A3, B1, B2 denotes bottle sample numbers, in which A1, A2 and A3 correspond to the conventional sterilization method, and B1 and B2 correspond to the third embodiment of the present invention mentioned above.
The column “Log Reduction” represents LRV (Logarithmic Reduction Value) as to B. subtilis spore.

[2] = tested on: bacteria adhering to the inner surfaces of the preforms; settings: for Number of bacteria adhering on inner surface of preform 10^3: 10^3 bacteria; for Number of bacteria adhering on inner surface of preform 10^4: 10^4 bacteria; for Number of bacteria adhering on inner surface of preform 10^5: 10^5 bacteria
Text: as §1

[3] = for Remaining hydrogen peroxide: 500 mL PET bottle, 30 μL hydrogen peroxide
[4] = 2 sec from hydrogen peroxide spray to air-rinse
[5] = 5 sec from hydrogen peroxide spray to air-rinse
[6] = bottle sample A1, conventional method, H2O2 mist 50 μL/bottle, H2O2 in air 0.0 mg/L, using amount 170 mL/min
[7] = bottle sample A2, conventional method, H2O2 mist 100 μL/bottle, H2O2 in air 0.0 mg/L, using amount 340 mL/min
[8] = bottle sample B1, third embodiment, H2O2 mist 50 μL/bottle, H2O2 in air 3.3 mg/L, using amount 230 mL/min
[9] = bottle sample A2, conventional method, H2O2 mist 100 μL/bottle, H2O2 in air 0.0 mg/L
[10] = bottle sample A3, conventional method, H2O2 mist 150 μL/bottle, H2O2 in air 0.0 mg/L
[11] = bottle sample B1, third embodiment, H2O2 mist 50 μL/bottle, H2O2 in air 3.3 mg/L
[12] = bottle sample B2, third embodiment, H2O2 mist 50 μL/bottle, H2O2 in air 5 mg/L
[13] = 0.5 sec from hydrogen peroxide spray to air-rinse

OO [hydrogen peroxide]
Judgment (log reduction) [1, 4]: ∘ | Judgment (log reduction) [1, 5]: ∘ | Judgment Sterilization performance (B. subtilis spore; [6]): X (LVR being less than 6) | Log reduction (B. subtilis spore; [6]): <3.4 | Judgment Sterilization performance (B. subtilis spore; [7]): ◯ (shows LRV being 6) | Log reduction (B. subtilis spore; [7]): 6.0 | Log reduction (B. subtilis spore; bottle sample A3, conventional method, H2O2 mist 150 μL/bottle, H2O2 in air 0.0 mg/L, using amount 510 mL/min): >6.0 | Judgment Sterilization performance (B. subtilis spore; [8]): ◯ (shows LRV being 6) | Log reduction (B. subtilis spore; [8]): 6 | Log reduction (B. subtilis spore; bottle sample B2, third embodiment, H2O2 mist 50 μL/bottle, H2O2 in air 5 mg/L, using amount 280 mL/min): >6.0 | sterilization effect LRV (B. subtilis spore; conventional method, hydrogen peroxide of 340 mL/min. to 510 mL/min.): 6 | sterilization effect LRV (B. subtilis spore; method of the present invention, hydrogen peroxide of 230 mL/min. to 260 mL/min.): 6 | Number of bacteria adhering on inner surface of preform 10^3 [2, 9]: ◯◯◯ | Number of bacteria adhering on inner surface of preform 10^4 [2, 9]: ◯◯◯ | Number of bacteria adhering on inner surface of preform 10^5 [2, 9]: ◯◯[…] | Number of bacteria adhering on inner surface of preform 10^3 [2, 10]: ◯◯◯ | Number of bacteria adhering on inner surface of preform 10^4 [2, 10]: ◯◯◯ | Number of bacteria adhering on inner surface of preform 10^5 [2, 10]: ◯◯◯ | Number of bacteria adhering on inner surface of preform 10^3 [2, 11]: ◯◯◯ | Number of bacteria adhering on inner surface of preform 10^4 [2, 11]: ◯◯◯ | Number of bacteria adhering on inner surface of preform 10^5 [2, 11]: ◯◯[…] | Number of bacteria adhering on inner surface of preform 10^3 [2, 12]: ◯◯◯ | Number of bacteria adhering on inner surface of preform 10^4 [2, 12]: ◯◯◯ | Number of bacteria adhering on inner surface of preform 10^5 [2, 12]: ◯◯◯ | Judgment (remaining hydrogen peroxide) [3, 13]: ∘ | Remaining hydrogen peroxide [3, 13]: 0.3 ppm | Judgment (remaining hydrogen peroxide) [3, 4]: ∘ | Remaining hydrogen peroxide [3, 5]: 0.9 ppm | density of the hydrogen peroxide adhering to the surface of the bottle (bottle temperature 65° C.): ~80 weight % | density of the hydrogen peroxide adhering to the surface of the bottle (bottle temperature 80° C.): ~90 weight %
